Data published in PubChem BioAssay AID1996.
Values after ≈ are worked out from the molar mass of the structure shown.

Settings: buffer; pH 7.4; 200.0 µM

Row | Compound | solubility kinetic
1 | Cc1ccc(C)c(OC(C)C(=O)Nc2nccs2)c1 (centres undefined) | 32.8 µg/mL (≈ 119 µM)
2 | O=[N+]([O-])c1cccc(-c2nnc(SCc3cccnc3)o2)c1 | > 47.1 µg/mL
3 | COc1cc2ccccc2cc1C(=O)NC(=S)Nc1cccc(C(=O)O)c1C | 18.3 µg/mL (≈ 46.4 µM)
4 | Cc1onc(-c2ccccc2)c1C(=O)NCc1ccccc1F | 6.5 µg/mL (≈ 20.9 µM)
5 | COc1ccccc1C(=O)NC(=O)CSc1cccc[n+]1[O-] | > 47.8 µg/mL
6 | Fc1ccc(NC(=S)Nc2cccc3ccccc23)cc1F | 29.3 µg/mL (≈ 93.2 µM)
7 | Cc1ccccc1Nc1nc(N)nc(CSc2n[nH]c(N)n2)n1 | > 49.4 µg/mL
8 | Cc1nc(-c2cc(C#N)c(=O)[nH]c2C)cs1 | > 34.7 µg/mL
9 | Cc1cccc(OCCn2c(=O)oc3ccc(C)cc32)c1 | 3.8 µg/mL (≈ 13.4 µM)
10 | COc1ccc(CCNC(=O)c2cnc3ccccc3n2)cc1 | 40.2 µg/mL (≈ 131 µM)
11 | COc1cccc(NC(=O)CN(C)CC(=O)NC(C)c2ccccc2)c1 (centres undefined) | 41.4 µg/mL (≈ 116 µM)
12 | CC(C)(C)NC(=O)COc1ccc(CNCc2ccccn2)cc1.Cl | > 54.6 µg/mL
13 | CSc1cccc(NC(=O)c2cccc3cccnc23)c1 | 5.7 µg/mL (≈ 19.4 µM)
14 | C=CCSc1nc2c(c(=O)[nH]c(=O)n2C)n1Cc1ccccc1 | 3.9 µg/mL (≈ 11.9 µM)
15 | Fc1ccc(OCCOCCN2CCNCC2)cc1.O=C(O)C(=O)O | 51 µg/mL
16 | Cc1ccc2c(CN(C)Cc3cccc(Cl)c3)cc(=O)oc2c1C | < 0.7 µg/mL
17 | N#Cc1c(N2CCN(c3ccc(F)cc3)CC2)nc(N)c2c(N)nc3c(c12)CC(=O)N3C1CC1 | 0.8 µg/mL (≈ 1.74 µM)
18 | O=C(Nc1ccccc1)Nc1ccc(Cl)nc1Cl | 3.9 µg/mL (≈ 13.8 µM)
19 | CC1CN(C(=S)Nc2cccc(Cl)c2Cl)CC(C)O1 (centres undefined) | 18.9 µg/mL (≈ 59.2 µM)
20 | CC(C)CN(C(=O)CSc1nc2ccccc2[nH]1)C1CCS(=O)(=O)C1 (centres undefined) | > 57.2 µg/mL
21 | CC1CCc2cc(F)ccc2N1C(=O)CCl (centres undefined) | > 36.3 µg/mL

Row | Compound | solubility kinetic
22 | CC(CN1CCC(O)CC1)c1ccccc1 (centres undefined) | 26.6 µg/mL (≈ 121 µM)
23 | O=C(NCCN1CCOCC1)c1ccc(Cl)c(S(=O)(=O)NCc2ccccc2)c1 | 63.2 µg/mL (≈ 144 µM)
24 | Br.COc1cccc(C(=O)CSc2nccn2C)c1 | > 51.5 µg/mL
25 | COCC(C)n1c(SCC(=O)NC(=O)NCc2ccccc2)nc2ccccc2c1=O (centres undefined) | 2.7 µg/mL (≈ 6.13 µM)
26 | Cc1ccc(NC(=O)C2CCCN(C(=O)Nc3ccc(F)cc3)C2)cc1 (centres undefined) | 13.4 µg/mL (≈ 37.7 µM)
27 | S=C(Nc1ccc2nccnc2c1)N1CCCC1 | > 38.8 µg/mL
28 | CC(C)OCCCNC(=O)NC(=O)c1ccc(Cl)cc1 | 18.3 µg/mL (≈ 61.3 µM)
29 | O=C1CC2c3ccccc3C1C1C(=O)N(CCO)C(=O)C21 (centres undefined) | > 42.8 µg/mL
30 | O=C(COC(=O)c1ccc(Cl)nc1)Nc1ccc(Cl)cc1 | 6.4 µg/mL (≈ 19.7 µM)
31 | CCOc1cc(N2CCOCC2)c(OCC)cc1NC(=O)Cn1cnnn1 | > 56.5 µg/mL
32 | CN(C)C(=O)COc1ncnc2sc(-c3ccccc3)cc12 | 13.9 µg/mL (≈ 44.4 µM)
33 | CC(C)Cn1c(=S)[nH]c2cc(Cl)ccc21 | 18.5 µg/mL (≈ 76.8 µM)
34 | O=C(CNC(=O)c1cc(Cl)cc([N+](=O)[O-])c1)NC1CC1 | > 44.7 µg/mL
35 | C/C(N)=C(/C#N)C(=O)COC(=O)c1cc2c(s1)CCC(C)C2 (centres undefined) | 4.7 µg/mL (≈ 14.8 µM)
36 | CC1=CCC2C(=O)N(c3ccc(OC(=O)c4ccco4)cc3)C(=O)C2C1 (centres undefined) | 21.5 µg/mL (≈ 61.2 µM)
37 | COc1ccc(NC(=O)COC(=O)Cn2cnc3ccccc32)cc1 | > 50.9 µg/mL
38 | O=C(c1cc2cc(Cl)ccc2oc1=O)N1CCCCCCC1 | 7.6 µg/mL (≈ 23.8 µM)
39 | Cc1cccc(C)c1NC(=S)N/N=C/c1ccc(C(=O)O)cc1 | > 49.1 µg/mL
40 | CCOC(=O)Cn1cc(C(=O)C(C)(C)C)c2ccccc21 | > 43.1 µg/mL
41 | CC(C)OP(=O)(OC(C)C)C(Nc1ccccc1)c1cccnc1 (centres undefined) | 46.5 µg/mL (≈ 133 µM)
42 | O=C(COC(=O)Cc1ccc(Br)cc1)NCC1CCCO1 (centres undefined) | > 53.4 µg/mL

Row | Compound | solubility kinetic
43 | Cc1cc(C)c2cc(C(=O)Nc3ccc(C)c(F)c3)[nH]c2c1 | 0.8 µg/mL (≈ 2.7 µM)
44 | O=[N+]([O-])c1ccc2ccn(C3OCC(O)C(O)C3O)c2c1 (centres undefined) | > 44.1 µg/mL
45 | O=C(CNC(=O)c1ccc(Br)o1)NCCc1ccc(F)cc1 | 39.8 µg/mL (≈ 108 µM)
46 | O=c1[nH]cc(COCC(F)CCl)c(=O)[nH]1 (centres undefined) | > 35.5 µg/mL
47 | O=C(CCCc1ccccc1)NC12CC3CC(CC(C3)C1)C2 | 11 µg/mL (≈ 37 µM)
48 | CN(Cc1c(F)cccc1Cl)C(=O)C1=CC=CN2CCS(=O)(=O)N=C12 | > 57.6 µg/mL
49 | Cc1cc(C)cc(C(=O)NC2CC(C)(C)NC(C)(C)C2)c1 | > 43.3 µg/mL
50 | CCC(C)(C)NC(=O)C1CC(=O)N(CCc2ccc(F)cc2)C1 (centres undefined) | > 48.1 µg/mL
51 | Cc1ccccc1OC(C)C(=O)NCc1cccnc1 (centres undefined) | 38.1 µg/mL (≈ 141 µM)
52 | Cc1ccnc(Nc2nc(-c3ccc(O)c(O)c3)cs2)c1 | 8.7 µg/mL (≈ 29.1 µM)
53 | Cc1ccc(-n2c(C)cc(/C=C3\SC(=O)NC3=O)c2C)cc1 | < 0.3 µg/mL
54 | CSc1nc(C)c(C(=O)C[n+]2ccc(C)cc2)cc1C#N.[Br-] | 50 µg/mL
55 | Cc1nnc(SCC(=O)N(C)C2CCCCC2)n1C | > 42.4 µg/mL
56 | CC(C)C(C)NC(=O)COc1ccc(OCc2ccccc2)cc1 (centres undefined) | 1.9 µg/mL (≈ 5.8 µM)
57 | CCN(CC(=O)NCc1cccs1)C(=O)Cc1ccc(Cl)c(Cl)c1 | > 57.8 µg/mL
58 | O=C(Cc1ccsc1)Nc1ccc(Cl)cc1Cl | 3.8 µg/mL (≈ 13.3 µM)
59 | Cc1noc(C)c1S(=O)(=O)Nc1ccc(C(C)C)cc1 | > 44.2 µg/mL
60 | S=C(NCc1ccccc1)NCc1ccco1 | 28.2 µg/mL (≈ 114 µM)
61 | COC(=O)c1cn(C(=O)c2cc(Cl)ccc2Cl)c2ccccc12 | < 0.7 µg/mL
62 | O=C(Oc1ccccc1C(=O)N1CCOCC1)c1ccc(F)cc1 | 45.1 µg/mL (≈ 137 µM)
63 | CCNc1nc(N)c(C(=O)C23CC4CC(CC(C4)C2)C3)s1 | 2 µg/mL (≈ 6.55 µM)

Row | Compound | solubility kinetic
64 | CN1C(=O)c2cccc3c(S(=O)(=O)NCCc4ccccc4)ccc1c23 | < 0.4 µg/mL
65 | COC(=O)c1[nH]c2ccccc2c1NC(=O)c1c(F)cccc1F | 1.1 µg/mL (≈ 3.33 µM)
66 | Cc1ccccc1CCNCc1cc2cccc(C)c2[nH]c1=O | > 46 µg/mL
67 | COc1ccc(/C=C/C(=O)OCC(=O)NC2CCCC(C)C2C)c(OC)c1 (centres undefined) | 5 µg/mL (≈ 13.3 µM)
68 | CC(C)CCOc1ccc(C2CC(=O)N(C)C2=O)cc1 (centres undefined) | 40.3 µg/mL (≈ 146 µM)
69 | CC/C(O)=C1\C(=O)CC(C)(C)CC1=NCCc1nc2ccccc2[nH]1 | > 50.9 µg/mL
70 | Cn1cccc1C(=O)Nc1ccc(N2CCOCC2)cc1 | > 42.8 µg/mL
71 | CCOc1ccc(C(=O)N(CN2CCCC2=O)c2cccc(Cl)c2)cc1 | > 55.9 µg/mL
72 | COc1ccc(N/C=C2\CCc3ccccc3C2=O)cc1 | 2 µg/mL (≈ 7.16 µM)
73 | CC1(C)C(=O)OC(/C=C/c2cccc([N+](=O)[O-])c2)C(C)(C)C1=O (centres undefined) | 2.7 µg/mL (≈ 8.51 µM)
74 | O=C(CCc1c[nH]c2ccccc12)OCc1cccc([N+](=O)[O-])c1 | < 0.3 µg/mL
75 | C/C(=N/OC(=O)C1CC1)c1cc(-c2ccc(Cl)cc2)no1 | 0.4 µg/mL (≈ 1.31 µM)
76 | CCOc1cccc(C2C(C(=O)c3ccc(C)o3)=C(O)C(=O)N2Cc2ccccc2)c1 (centres undefined) | 62.5 µg/mL (≈ 150 µM)
77 | CCn1cc(C(=O)Nc2cccc(C)c2)c(=O)c2ccc(C)nc21 | < 0.2 µg/mL
78 | Cc1ccc(CNC(=O)Cc2ccc(Br)cc2)cc1 | < 0.7 µg/mL
79 | COc1nc(C)nc(C)c1Oc1ccc(Cl)cc1Cl | 1.5 µg/mL (≈ 5.01 µM)
80 | O=S(=O)(c1ccc(F)c(F)c1)N1CCN(c2ncccn2)CC1 | 2.3 µg/mL (≈ 6.76 µM)
81 | CCCCC(=O)OCC(=O)c1[nH]c(C)c(C(C)=O)c1C | 36.9 µg/mL (≈ 132 µM)
82 | CC(=O)Nc1ccc(S(=O)(=O)NC2CCS(=O)(=O)C2)cc1Cl (centres undefined) | 23.8 µg/mL (≈ 64.9 µM)
83 | COc1ccc(NC(=S)NC2CCCC2)c(OC)c1 | > 42.1 µg/mL
84 | NC(=O)c1cc(-c2cccnc2)nc2ccc(Br)cc12 | 2.2 µg/mL (≈ 6.7 µM)
